Test results as given in PubChem BioAssay (NCI).
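A five-concentration, 48-hour dose response in 96-well plates underlies each endpoint, interpolated linearly between surrounding concentrations. Here, GI50 denotes the concentration required for 50% inhibition of growth. TGI denotes the concentration required for complete inhibition of growth.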

Columns and labels:
Assay in all cases: NCI anticancer screen, dose series, 48 h
[1] = system: NCI/ADR-RES ovarian
[2] = system: SK-MEL-5 melanoma
[3] = system: ACHN renal
[4] = system: CAKI-1 renal
[5] = system: HCT-116 colon
[6] = system: LOX IMVI melanoma
[7] = system: K-562 leukemia
[8] = system: MDA-MB-231 breast
[9] = system: MOLT-4 leukemia
[10] = system: MCF7 breast

SMILES	TGI [1] [µM]	TGI [2] [µM]	TGI [3] [µM]	TGI [4] [µM]	TGI [5] [µM]	TGI [6] [µM]	TGI [7] [µM]	TGI [8] [µM]	TGI [9] [µM]	TGI [10] [µM]	GI50 [1] [µM]	GI50 [4] [µM]	GI50 [5] [µM]	GI50 [6] [µM]	GI50 [10] [µM]	GI50 [9] [µM]
O=C(c1cccnc1)N1N=C(c2ccc3c(c2)OCO3)CC1(O)c1cc(F)c(Cl)cc1Cl (stereo unspecified)	50.4	28.8	38.9	> 100	31.2	30.5	> 100	40.5	> 100							
CC(C)(/C=N/O)/[N+]([O-])=C/c1ccccc1	> 100	> 100	> 100	> 100	> 100	> 100		> 100	> 100	> 100						
O=C(NCCC1CN(S(=O)(=O)C(F)(F)F)c2ccccc21)OCc1ccccc1 (stereo unspecified)	> 100	> 100	> 100	> 100	> 100		> 100	> 100	> 100	> 100						
O=c1cc(NNc2cccc(F)c2)[nH]c(=S)[nH]1	> 100	> 100	> 100		> 100	> 100	> 100	> 100		> 100						
CN(C)CCNC(=O)c1cccc2[nH]c(-c3ccc(Cl)cc3)nc12	21	16.7		12.8	13.8	13.8	12.6		5.5	15.8						
CC(=O)Nc1ccc(C(=O)n2[nH]c(C)c(/C=C3\C(=O)C=Cc4ccccc43)c2=O)cc1		> 100	> 100	> 100	> 100	> 100	> 100		> 100							
COc1cc2c(cc1OC)-c1[nH]c3ccc([N+](=O)[O-])cc3c1CC(=O)N2	> 100	5.87	6.2	> 26.9		> 100	> 100	> 100	> 76.4	34.9						
CCOP(=O)(OCC)C(C)(CC)/N=C(\N)NC#N (stereo unspecified)	> 100	> 100	> 100		> 100	> 100	> 100	> 100	> 100	> 100						
CCN(CCN(CC)C(=O)NC)C(=O)NC	> 100	> 100	> 100		> 100	> 100	> 100	> 100	> 100	> 100						
COc1cccc2c1C(=O)c1c(O)c3c(c(O)c1C2=O)CC(O)(C(C)=O)CC3O (stereo unspecified)	22.4	6.98		21.8	10.1	8.7	39.3		11.3	16.2						
c1ccc(Sc2nc(Sc3ccccc3)nc(Sc3ccccc3)n2)cc1		> 100	> 100	> 100	> 100	> 100	> 100	> 100	> 100	> 100						
COC1=CC(c2ccc[nH]2)=N/C1=C\c1[nH]c(C)c(C)c1CCC(=O)OCc1ccccc1	2.01			2.08	1.11	0.705			1.44	2.19	0.382	0.3	0.065	0.217	0.293	0.24
